# Molecular target: T1, recombinant IL4I1 (Homo sapiens, UniProt Q96RQ9)
# T1 construct: purchased R&D Systems 5684-AO-020
# T1 sequence (Q96RQ9 22-567): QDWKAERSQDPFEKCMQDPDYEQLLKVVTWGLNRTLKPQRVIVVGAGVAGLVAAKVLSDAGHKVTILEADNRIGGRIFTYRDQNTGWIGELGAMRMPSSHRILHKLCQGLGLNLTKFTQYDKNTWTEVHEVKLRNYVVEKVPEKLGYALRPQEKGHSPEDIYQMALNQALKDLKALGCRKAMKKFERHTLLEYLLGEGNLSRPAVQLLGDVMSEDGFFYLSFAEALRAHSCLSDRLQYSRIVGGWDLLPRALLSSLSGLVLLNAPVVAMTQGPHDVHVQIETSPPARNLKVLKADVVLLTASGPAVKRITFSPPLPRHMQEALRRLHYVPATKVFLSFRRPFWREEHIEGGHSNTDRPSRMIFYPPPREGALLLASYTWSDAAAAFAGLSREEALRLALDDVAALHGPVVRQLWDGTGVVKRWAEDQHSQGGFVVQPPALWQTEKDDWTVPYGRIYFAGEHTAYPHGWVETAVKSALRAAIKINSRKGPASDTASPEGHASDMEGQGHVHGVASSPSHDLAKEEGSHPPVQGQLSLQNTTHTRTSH
# Assay: IL4I1 Enzymatic Assay (Amplex Red/HRP coupled detection of H2O2, fluorescence)
# Format: biochemical
# Details: 1 nM recombinant IL4I1; four-hour pre-incubation with compound; 1 mM each Phe, Tyr, Trp; ten-point titration
# How it was run: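 H2O2 output was coupled to resorufin fluorescence (ex 544/em 590) via 0.05 mM Amplex Red and 1 U/mL HRP. Substrate: Phe, Tyr, Trp at 1 mM each; enzyme 1 nM, 4 h compound pre-incubation, 120 min reaction, pH 7.0 Hepes. EC50 by nonlinear four-parameter regression, 1:3 ten-point titration.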
row,SMILES,EC50
1,"O=C(NCc1nnc(-c2ccccc2)s1)c1cn(CCC(F)(F)F)nn1 [Example 62, N-((5-phenyl-1,3,4-thiadiazol-2-yl)methyl)-1-(3,3,3-trifluoropropyl)-1H-1,2,3-triazole-4-carboxamide]",7 nM
2,"Cc1ccc(-c2cc(C(=O)NCc3nnc(-c4ccccc4)s3)on2)c(C)n1 [Example 283, 3-(2,6-dimethylpyridin-3-yl)-N-((5-phenyl-1,3,4-thiadiazol-2-yl)methyl)isoxazole-5-carboxamide]",165 nM
3,"O=C(NCc1nnc(-c2ccccc2)s1)c1cn(C2CC2)nn1 [Example 268, 1-cyclopropyl-N-((5-phenyl-1,3,4-thiadiazol-2-yl)methyl)-1H-1,2,3-triazole-4-carboxamide]",8 nM
4,"O=C(NCc1nnc(-c2ccccc2)s1)c1cn([C@@H]2COC[C@@H]2F)nn1 [Example 198, 1-((3R,4R)-4-fluorotetrahydrofuran-3-yl)-N-((5-phenyl-1,3,4-thiadiazol-2-yl)methyl)-1H-1,2,3-triazole-4-carboxamide]",17 nM
5,"O=C(NCc1nnc(-c2ccccc2)s1)c1cn(CCC(F)F)nn1 [Example 171, 1-(3,3-difluoropropyl)-N-((5-phenyl-1,3,4-thiadiazol-2-yl)methyl)-1H-1,2,3-triazole-4-carboxamide]",10 nM
6,"O=C(NCc1nnc(-c2ccccc2)s1)c1cc2c(s1)CCC2 [Example 6, N-[(5-phenyl-1,3,4-thiadiazol-2-yl)methyl]-5,6-dihydro-4H-cyclopenta[b]thiophene-2-carboxamide]",62 nM
7,"CC(C)(C(N)=O)n1cc(C(=O)NCc2cc(-c3ccccc3)on2)nn1 [Example 271, 1-(1-amino-2-methyl-1-oxopropan-2-yl)-N-((5-phenylisoxazol-3-yl)methyl)-1H-1,2,3-triazole-4-carboxamide]",27 nM
8,"O=C(NCc1nnc(-c2ccccc2)s1)c1cn(C2(CO)COC2)nn1 [Example 158, 1-(3-(hydroxymethyl)oxetan-3-yl)-N-((5-phenyl-1,3,4-thiadiazol-2-yl)methyl)-1H-1,2,3-triazole-4-carboxamide]",335 nM
9,"O=C(NCc1nnc(-c2ccccc2)s1)c1cn(C2CN(C(=O)C3CC3)C2)nn1 [Example 103, 1-(1-(cyclopropanecarbonyl)azetidin-3-yl)-N-((5-phenyl-1,3,4-thiadiazol-2-yl)methyl)-1H-1,2,3-triazole-4-carboxamide]",542 nM
10,"Cc1ccc(-n2cc(C(=O)NCc3nnc(-c4ccccc4)s3)nn2)c(C(C)(C)O)n1 [Example 338, 1-(2-(2-hydroxypropan-2-yl)-6-methylpyridin-3-yl)-N-((5-phenyl-1,3,4-thiadiazol-2-yl)methyl)-1H-1,2,3-triazole-4-carboxamide]",24 nM
11,"O=C(NCc1nnc(-c2ccccc2)s1)c1cn([C@@H]2C[C@@H](O)[C@@H](O)C2)nn1 [Example 190, 1-((1s,3R,4S)-3,4-dihydroxycyclopentyl)-N-((5-phenyl-1,3,4-thiadiazol-2-yl)methyl)-1H-1,2,3-triazole-4-carboxamide]",499 nM
12,"CC(C)(O)Cn1cc(C(=O)NCc2nnc(-c3ccccc3)s2)nn1 [Example 201, 1-(2-hydroxy-2-methylpropyl)-N-((5-phenyl-1,3,4-thiadiazol-2-yl)methyl)-1H-1,2,3-triazole-4-carboxamide]",226 nM
13,"Cc1ccc(-n2cc(C(=O)NCc3nnc(-c4ccccc4F)s3)nn2)c(C)n1 [Example 114, 1-(2,6-dimethylpyridin-3-yl)-N-((5-(2-fluorophenyl)-1,3,4-thiadiazol-2-yl)methyl)-1H-1,2,3-triazole-4-carboxamide]",37 nM
14,"N#CCCCCn1cc(C(=O)NCc2nnc(-c3ccccc3)s2)nn1 [Example 90, 1-(4-cyanobutyl)-N-((5-phenyl-1,3,4-thiadiazol-2-yl)methyl)-1H-1,2,3-triazole-4-carboxamide]",27 nM
15,"Cc1nc(OC(F)F)ccc1-n1cc(C(=O)NCc2nnc(-c3ccccc3)s2)nn1 [Example 301, 1-(6-(difluoromethoxy)-2-methylpyridin-3-yl)-N-((5-phenyl-1,3,4-thiadiazol-2-yl)methyl)-1H-1,2,3-triazole-4-carboxamide]",8 nM
16,"C[C@@H](O)Cn1cc(C(=O)NCc2nnc(-c3ccccc3)s2)nn1 [Example 180, (R)-1-(2-hydroxypropyl)-N-((5-phenyl-1,3,4-thiadiazol-2-yl)methyl)-1H-1,2,3-triazole-4-carboxamide]",75 nM
17,"O=C(NCc1nnc(-c2ccccc2)s1)c1cn([C@@H]2C[C@@H]2C(F)F)nn1 (single isomer, unassigned) [Example 146, cis-1-(-2-(difluoromethyl)cyclopropyl]-N-[(5-phenyl-1,3,4-thiadiazol-2-yl)methyl]-1H-1,2,3-triazole-4-carboxamide]",244 nM

row,SMILES,EC50
1,"O=C(NCc1nnc(-c2ccccc2)s1)c1cn(CC2(CO)COC2)nn1 [Example 185, 1-((3-(hydroxymethyl)oxetan-3-yl)methyl)-N-((5-phenyl-1,3,4-thiadiazol-2-yl)methyl)-1H-1,2,3-triazole-4-carboxamide]",25 nM
2,"C[C@H](CO)Cn1cc(C(=O)NCc2nnc(-c3ccccc3)s2)nn1 [Example 76, (S)-1-(3-hydroxy-2-methylpropyl)-N-((5-phenyl-1,3,4-thiadiazol-2-yl)methyl)-1H-1,2,3-triazole-4-carboxamide]",4 nM
3,"Cc1ccc(-n2cc(C(=O)NCc3ccc(-c4ccccc4)nn3)nn2)c(C)n1 [Example 261, 1-(2,6-dimethylpyridin-3-yl)-N-((6-phenylpyridazin-3-yl)methyl)-1H-1,2,3-triazole-4-carboxamide]",25 nM
4,"O=C(NCc1nnc(-c2ccccc2)s1)c1cn(CC(O)C(F)(F)F)nn1 (stereo not drawn) [Example 127, N-((5-phenyl-1,3,4-thiadiazol-2-yl)methyl)-1-(3,3,3-trifluoro-2-hydroxypropyl)-1H-1,2,3-triazole-4-carboxamide]",73 nM
5,"O=C(NCc1nnc(-c2ccccc2)s1)c1cn(C2CCC(O)C2)nn1 (stereo not drawn) [Example 196, 1-(3-hydroxycyclopentyl)-N-((5-phenyl-1,3,4-thiadiazol-2-yl)methyl)-1H-1,2,3-triazole-4-carboxamide]",11 nM
6,"Cc1ccc(-n2cc(C(=O)NCc3nnc(-c4ccccc4)s3)nn2)cn1 [Example 267, 1-(6-methylpyridin-3-yl)-N-((5-phenyl-1,3,4-thiadiazol-2-yl)methyl)-1H-1,2,3-triazole-4-carboxamide]",145 nM
7,"O=C(NCc1nnc(-c2ccccc2)s1)c1cn(-c2ccncn2)nn1 [Example 309, N-((5-phenyl-1,3,4-thiadiazol-2-yl)methyl)-1-(pyrimidin-4-yl)-1H-1,2,3-triazole-4-carboxamide]",720 nM
8,"Cc1ccc(-n2cc(C(=O)NCc3cc(-c4ccccn4)no3)nn2)c(C)n1 [Example 235, 1-(2,6-dimethylpyridin-3-yl)-N-((3-(pyridin-2-yl)isoxazol-5-yl)methyl)-1H-1,2,3-triazole-4-carboxamide]",388 nM
9,"O=C(NCc1nnc(-c2ccccc2)s1)c1cn(-c2cncnc2)nn1 [Example 316, N-((5-phenyl-1,3,4-thiadiazol-2-yl)methyl)-1-(pyrimidin-5-yl)-1H-1,2,3-triazole-4-carboxamide]",241 nM
10,"CC(n1cc(C(=O)NCc2nnc(-c3ccccc3)s2)nn1)C(F)(F)F (stereo not drawn) [Example 203, N-((5-phenyl-1,3,4-thiadiazol-2-yl)methyl)-1-(1,1,1-trifluoropropan-2-yl)-1H-1,2,3-triazole-4-carboxamide]",31 nM
11,"Cc1ccc(-n2cc(C(=O)NCc3cc(-c4nccs4)on3)nn2)c(C)n1 [Example 273, 1-(2,6-dimethylpyridin-3-yl)-N-((5-(thiazol-2-yl)isoxazol-3-yl)methyl)-1H-1,2,3-triazole-4-carboxamide]",511 nM
12,"O=C(NCc1cc(-c2ccccc2)on1)c1cn(CC(F)(F)F)nn1 [Example 232, N-((5-phenylisoxazol-3-yl)methyl)-1-(2,2,2-trifluoroethyl)-1H-1,2,3-triazole-4-carboxamide]",6 nM
13,"O=C(NCc1nnc(-c2ccccc2)s1)c1cn(C2CC(CO)(CO)C2)nn1 [Example 175, 1-(3,3-bis(hydroxymethyl)cyclobutyl)-N-((5-phenyl-1,3,4-thiadiazol-2-yl)methyl)-1H-1,2,3-triazole-4-carboxamide]",80 nM
14,"Cc1ccc(-n2cc(C(=O)NCc3cc(-c4cccc(F)c4)no3)nn2)c(C)n1 [Example 223, 1-(2,6-dimethylpyridin-3-yl)-N-{[3-(3-fluorophenyl)-1,2-oxazol-5-yl]methyl}-1H-1,2,3-triazole-4-carboxamide]",58 nM
15,"O=C(NCc1nnc(-c2ccccc2)s1)c1cn(CC2CCC2)nn1 [Example 77, 1-(cyclobutylmethyl)-N-((5-phenyl-1,3,4-thiadiazol-2-yl)methyl)-1H-1,2,3-triazole-4-carboxamide]",12 nM
16,O=C(NCc1nnc(-c2ccccc2)s1)c1cn(CC(F)F)nn1 [Example 213],3 nM
